In brackets after ≈: the same amount, converted by molar mass. Read-outs that look alike come from different tables or passages of the source.

The assay concerns S. aureus ATCC 29213. In words: microbe, parasite or virus in culture. The conditions noted are these: for Increase of MIC: relative to first passage; for MIC: Staphylococcus aureus. The procedure:
To determine the MICs of CSP-4, a single colony of S. aureus ATCC 29213 was cultured at 37° C in tryptic soy broth, as well as daptomycin and linezolid, which served as commercial antibiotic positive controls. […] For each agent, the MIC was determined daily for 29 days at pH 5.5 and/or for 8 days at pH 7.4 using cells from wells containing half the MIC (1/2 MIC well). […] All MICs were determined in duplicate.

Setting [1] is: after 8 passages at pH 7.4, 10 mM sodium phosphate buffer, 10% tryptic soy broth.

As to `CCCCCCCCCC(=O)N[C@@H](Cc1c[nH]c2ccccc12)C(=O)N[C@H](CC(N)=O)C(=O)N[C@@H](CC(=O)O)C(=O)N[C@@H]1C(=O)NCC(=O)N[C@@H](CCCN)C(=O)N[C@@H](CC(=O)O)C(=O)N[C@H](C)C(=O)N[C@@H](CC(=O)O)C(=O)NCC(=O)N[C@H](CO)C(=O)N[C@@H]([C@H](C)CC(=O)O)C(=O)N[C@@H](CC(=O)c2ccccc2N)C(=O)O[C@@H]1C` [daptomycin], the “Increase of MIC” value under setting [1] is listed as “approximately 1000 ×”. Further, the “Increase of MIC” value (after 29 passages at pH 5.5) is “over 8000 ×”. In addition, the “Increase of MIC following prolonged exposure” value (following prolonged exposure) is recorded as no more than 8000 fold. For the same compound, for the setting “pH 5.5”, the “MIC at start of resistance induction” value stood at 0.25 µM and the “Passages over which resistance was induced” value stood at 24 passages. In addition, under “pH 7.4”, the “MIC at start of resistance induction” value is 4 µM and the “Passages after which resistance was induced” value came to 5 passages.
For `CC(=O)NC[C@H]1CN(c2ccc(N3CCOCC3)c(F)c2)C(=O)O1` [linezolid], the MIC (ATCC29213, pH 5.5, read-out: MIC at start of resistance induction) worked out at 4 µM (≈ 1.35 µg/mL) and the MIC (ATCC29213, pH 7.4, read-out: MIC at start of resistance induction) stood at 8 µM (≈ 2.7 µg/mL). The “Increase of MIC” value under setting [1] is “approximately 200 ×”. For the same compound, for the setting “pH 5.5”, the “Passages over which resistance was induced” value is 24 passages. Besides, the “Passages after which resistance was induced” value (pH 7.4) was determined as 5 passages.
